Source: a flash point compilation (Sun et al. 2020)

Row | Compound | flash point
1 | OCCCCO [butane-1,4-diol] | 121.11 °C
2 | CC(C)CCOCCC(C)C [1-isopentyloxy-3-methylbutane] | 46.00 °C
3 | CCN(CC)CCO [2-diethylaminoethanol] | 51.50 °C

remark: another data set of the same source

Row | Compound | flash point
4 | CCCC(C)O (stereo not given) [2-Pentanol] | 39.00 °C
5 | CCCCC(=O)O [Valeric acid] | 96.00 °C
6 | C=CCOC(C)=O [Allyl acetate] | 21.00 °C

remark: another data set of the same source

Row | Compound | flash point
7 | CCCC(C)O (stereo not given) [2-Pentanol] | 34.0 °C
8 | CCCCC(=O)O [Valeric acid] | 86.0 °C
9 | C=CCOC(C)=O [Allyl acetate] | 10 °C

remark: another data set of the same source

Row | Compound | flash point
10 | CCO[Si](OCC)(OCC)OCC [Tetraethoxysilane] | 50.00 °C
11 | C[Si](C)(C)OC(=O)C(F)(F)F [Trimethylsilyltrifluoroacetate] | 0.00 °C
12 | C[Si](C)(C)OC1=CCCC1 [(Cyclopentenyloxy)trimethylsilane] | 38.00 °C
13 | [SiH3][SiH2][SiH3] [Trisilane] | 0.00 °C
14 | C[Si](C)(C)Cl [Trimethylchlorosilane] | -18.00 °C
15 | C=C(C)C(=O)OCCC[Si](OC)(OC)OC [3-Methacryloxypropyltrimethoxysilane] | 92.00 °C
16 | CCC[Si](Cl)(Cl)Cl [n-Propyltrichlorosilane] | 37.00 °C
17 | CCC[Si](Cl)(CCC)CCC [Tri-n-propylchlorosilane] | 76.00 °C
18 | CCCCCCCC[SiH3] [n-Octylsilane] | 36.00 °C
19 | CCCCCC[SiH3] [Hexylsilane] | 12.00 °C
20 | CC[Si](Cl)(CC)CC [Triethylchlorosilane] | 30.00 °C
21 | C[Si](C)(C)O[Si](C)(C)O[Si](C)(C)O[Si](C)(C)O[Si](C)(C)O[Si](C)(C)O[Si](C)(C)O[Si](C)(C)C [Octadecamethyloctasiloxane] | 144.00 °C
22 | CC(C)N(C(C)C)[Si](C)(C)C [(Diisopropylamino)trimethylsilane] | 28.00 °C
23 | C[Si]1(C)N[Si](C)(C)N[Si](C)(C)N[Si](C)(C)N1 [Octamethylcyclotetrasilazane] | 66.00 °C
24 | C[Si](C)(C)I [Iodotrimethylsilane] | 15.00 °C
25 | CCCCCC[Si](C)(Cl)Cl [n-Hexylmethyldichlorosilane] | 85.00 °C
26 | CO[Si](OC)(OC)c1ccccc1 [Phenyltrimethoxysilane] | 85.00 °C
27 | C[Si](C)(C)O[Si](C)(C)C [Hexamethyldisiloxane] | -3.00 °C
28 | C[Si](C)(C)c1ccccc1 [Trimethylphenylsilane] | 40.00 °C
29 | CCCCCCCCCCCC[Si](C)(Cl)Cl [n-Dodecylmethyldichlorosilane] | 143.00 °C
30 | CO[Si](CC(C)C)(OC)OC [Isobutyltrimethoxysilane] | 42.00 °C
31 | CCCCCC[SiH](Cl)Cl [Hexyldichlorosilane] | 64.00 °C

Row | Compound | flash point
32 | CC[Si](CC)(CC)O[Si](CC)(CC)CC [Hexaethyldisiloxane] | 76.00 °C
33 | ClCCC[Si](Cl)(Cl)Cl [3-Chloropropyltrichlorosilane] | 84.00 °C
34 | C=CC=CC[Si](C)(C)C [(2,4-Pentadienyl)trimethylsilane] | 18.00 °C
35 | CCCCCCC[Si](Cl)(Cl)Cl [n-Heptyltrichlorosilane] | 64.00 °C
36 | CCCCC=C[Si](Cl)(Cl)Cl [1-Hexenyltrichlorosilane] | 60.00 °C
37 | C[Si](C)(C)CBr [Bromomethyltrimethylsilane] | 16.00 °C
38 | C[Si](C)(C)O[Si](C)(C)O[Si](C)(C)O[Si](C)(C)O[Si](C)(C)O[Si](C)(C)O[Si](C)(C)C [Hexadecamethylheptasiloxane] | 133.00 °C
39 | CN(C)[SiH](C)C [(N,N-Dimethylamino)dimethylsilane] | -13.00 °C
40 | CO[Si](CCC1CCC2OC2C1)(OC)OC (stereo not given) [2-(3,4-epoxycyclohexyl)ethyltrimethoxysilane] | 146.00 °C
41 | CCCCCC[Si](Cl)(Cl)Cl [n-Hexyltrichlorosilane] | 85.00 °C
42 | C[SiH](C)O[Si](O[SiH](C)C)(O[SiH](C)C)O[SiH](C)C [Tetrakisdimethylsiloxysilane] | 67.00 °C
43 | CC[SiH3] [Ethylsilane] | -60.00 °C
44 | O=C=N[Si](N=C=O)(N=C=O)N=C=O [Tetraisocyanatosilane] | 50.00 °C
45 | CCCCCCCCCCCCCCCCCC[Si](Cl)(Cl)Cl [n-Octadecyltrichlorosilane] | 193.00 °C
46 | CC[SiH](CC)CC [Triethylsilane] | -3.00 °C
47 | CCO[Si](CC)(CC)OCC [Diethyldiethoxysilane] | 43.00 °C
48 | C=CO[Si](C)(C)C [Trimethyl(vinyloxy)silane] | -10.00 °C
49 | COCC(C)O[Si](C)(C)C (stereo not given) [(1-Methoxy-2-propoxy)trimethylsilane] | 20.00 °C
50 | CCN(CC)[Si](C)(C)C [(Diethylamino)trimethylsilane] | 10.00 °C
51 | CO[Si](C)(CCCCl)OC [3-Chloropropylmethyldimethoxysilane] | 45.00 °C
52 | CCO[Si](C)(C)CCl [Chloromethyldimethylethoxysilane] | 26.00 °C
53 | C=CC[Si](C)(C)C [Allyltrimethylsilane] | 7.00 °C

Row | Compound | flash point
54 | C=C[Si](C=C)(C=C)C=C [Tetravinylsilane] | 18.00 °C
55 | c1ccc([SiH2]c2ccccc2)cc1 [Diphenylsilane] | 98.00 °C
56 | C[Si](C)(C)[SiH]([Si](C)(C)C)[Si](C)(C)C [Tris(trimethylsilyl)silane] | 55.00 °C
57 | Cl[Si](Cl)(Cl)C1CCCC1 [Cyclopentyltrichlorosilane] | 77.00 °C
58 | C[Si](C)(C)S[Si](C)(C)C [Hexamethyldisilthiane] | 26.00 °C
59 | C=C[Si](C)(C)N[Si](C)(C)C=C [1,3-Divinyltetramethyldisilazane] | 34.00 °C
60 | CC#C[Si](C)(C)C [1-Trimethylsilylpropyne] | -3.00 °C
61 | C[Si](C)(C)C[Si](C)(C)C [Bis(trimethylsilyl)methane] | 12.00 °C
62 | CCCCCCC[Si](C)(Cl)Cl [n-Heptylmethyldichlorosilane] | 66.00 °C
63 | C=CC[Si](Cl)(Cl)Cl [Allyltrichlorosilane] | 31.00 °C
64 | Cl[SiH2]Cl [Dichlorosilane] | -37.00 °C
65 | CC[Si](OC)(OC)OC [Ethyltrimethoxysilane] | 27.00 °C
66 | CC[Si](Cl)(Cl)CC [Dichlorodiethylsilane] | 24.00 °C
67 | C[Si]1(C)O[Si](C)(C)O[Si](C)(C)O[Si](C)(C)O1 [Octamethylcyclotetrasiloxane] | 57.00 °C
68 | CO[Si](C)(C)C [Methoxytrimethylsilane] | -30.00 °C
69 | C=CC[Si](OC)(OC)OC [Allyltrimethoxysilane] | 46.00 °C
70 | C=C[Si](OC)(OC)OC [Vinyltrimethoxysilane] | 23.00 °C
71 | C=C[Si](C)(C)OCC [Vinyldimethylethoxysilane] | 4.00 °C
72 | C=C(C)O[Si](C)(C)C [Trimethyl[(1-methylethenyl)oxy]silane] | -1.00 °C
73 | CCCC[Si](C)(Cl)Cl [n-Butylmethyldichlorosilane] | 30.00 °C
74 | CCO[SiH2]CCCN [Gamma-aminopropylethoxysilane] | 96.11 °C
75 | C[Si](C)(C)O[Si](C)(C)O[Si](C)(C)O[Si](C)(C)C [Decamethyltetrasiloxane] | 62.00 °C

Row | Compound | flash point
76 | CC(CCl)C[Si](C)(Cl)Cl (stereo not given) [3-Chloro-2-methylpropylmethyldichlorosilane] | 90.00 °C
77 | C[Si](Cl)(Cl)Cl [Methyltrichlorosilane] | 3.00 °C
78 | C[Si](C)(C)N1CCOCC1 [N-(Trimethylsilyl)morpholine] | 27.00 °C
79 | C[Si](C)(Cl)O[Si](C)(C)Cl [1,3-Dichlorotetramethyldisiloxane] | 15.00 °C
80 | C=C[Si](Cl)(Cl)Cl [Vinyltrichlorosilane] | 21.00 °C
81 | CC(=O)O[Si](C)(OC(C)=O)OC(C)=O [Methyltriacetoxysilane] | 85.00 °C
82 | CC[Si](CC)(CC)N(C)C [(N,N-Dimethylamino)triethylsilane] | 26.00 °C
83 | C=CC[Si](C)(C)Cl [Allyl Dimethylchlorosilane] | 5.00 °C
84 | C[SiH](C)C(C)(C)C [t-Butyld imethyl silane] | -22.00 °C
85 | CCCCCCCC[Si](OCC)(OCC)OCC [Octyltriethoxysilane] | 100.00 °C
86 | CC(=O)OC[Si](C)(C)C [Acetoxymethyltrimethylsilane] | 20.00 °C
87 | CCC[SiH](CCC)CCC [Tri-n-propylsilane] | 43.00 °C
88 | CO[Si](CCCOCC1CO1)(OC)OC (stereo not given) [3-Glycidoxypropyltrimethoxysilane] | 110.00 °C
89 | Clc1ccc([Si](Cl)(Cl)Cl)cc1 [Trichloro(p-chlorophenyl)silane] | 123.90 °C
90 | CC[Si](C)(Cl)CC [Diethylmethylchlorosilane] | 15.00 °C
91 | N#CCCC[Si](Cl)(Cl)Cl [Trichloro(3-cyanopropyl) Silane] | 92.00 °C
92 | C[Si]1(C)O[Si](C)(C)O[Si](C)(C)O[Si](C)(C)O[Si](C)(C)O[Si](C)(C)O1 [Dodecamethylcyclohexasiloxane] | 93.00 °C
93 | c1ccc([SiH](c2ccccc2)c2ccccc2)cc1 [Triphenylsilane] | 143.20 °C
94 | CC(=O)O[Si](C)(C)OC(C)=O [Dimethyldiacetoxysilane] | 37.00 °C
95 | C[Si](C)(Cl)CCl [Chloromethyldimethylchlorosilane] | 22.00 °C
